Earlier results, collected in patent US20140349957A1, “Compositions for Photodynamic Therapy Chemically Modified to Increase Epithelia Penetration and Cellular Bioavailability” (YAGNA LIMITED, priority 2011, published 2014).

Test system: cells which have incorporated the drug

For `Cc1cn([C@H]2C[C@H](O)[C@@H](CO)O2)c(=O)[nH]c1=S` [4 thiothymidine, 4-thiothymidine], the “toxicity of exposure to drug alone” value (drug alone, no UV-A) is given as “does not result in appreciable toxicity” and the “toxicity to cells upon excitation” value (excitation at 335 nm (UV-A)) is given as “results in toxicity to the cells which have incorporated the drug”.
